Test results from ChEMBL document CHEMBL1201862, “PubChem BioAssay data set” (2004).
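All cell lines were grown in 96-well plates and treated with compound for 48 hours. Here, GI50 denotes the concentration required for 50% inhibition of growth.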 Active and inactive are the calls of the source. Cut-off read from the data, not from the text of the source: active = GI50 up to about 1.1 µM and inactive = higher.

Columns and labels:
Experiment in all cases: NCI tumour cell line growth inhibition, 48 h
[1] = test system: SW-620
[2] = test system: K562
[3] = test system: ACHN
[4] = test system: A498
[5] = test system: HOP-62
[6] = test system: EKVX
[7] = test system: OVCAR-3
[8] = test system: OVCAR-5
[9] = test system: HT-29
[10] = test system: RXF 393
[11] = test system: IGROV-1
[12] = test system: T47D
[13] = test system: UO-31
[14] = test system: RPMI-8226
[15] = test system: UACC-62
[16] = test system: HOP-92
[17] = test system: SK-MEL-5
[18] = test system: PC-3
[19] = test system: BT-549

Measured: GI50

Cc1nc2ccccc2c(=O)n1NC(=O)c1ccc(N)cc1
inactive: [1] > 100 µM | [2] > 100 µM | [3] > 100 µM | [4] > 100 µM | [5] > 100 µM | [6] > 100 µM | [7] > 100 µM | [8] > 100 µM | [9] > 100 µM | [10] > 100 µM | [11] > 100 µM | [12] > 100 µM | [13] > 100 µM | [14] > 100 µM | [15] > 100 µM | [16] > 100 µM | [17] 17.8 µM | [18] > 100 µM | [19] > 100 µM

CC(C)(C)OC(=O)N(O)CCCn1cnc2c(NC3CC3)ncnc21
inactive: [1] > 100 µM | [2] > 100 µM | [3] > 100 µM | [4] > 100 µM | [5] > 100 µM | [6] > 100 µM | [7] > 100 µM | [8] > 100 µM | [9] > 100 µM | [10] > 100 µM | [11] 75.3 µM | [12] > 100 µM | [13] > 100 µM | [14] > 100 µM | [15] > 100 µM | [16] > 100 µM | [17] > 100 µM | [18] > 100 µM | [19] > 100 µM

C(=N\c1ccc(-c2nc3ccccc3s2)cc1)/c1ccc[nH]1
inactive: [1] 22.4 µM | [2] 20.4 µM | [3] 20.7 µM | [4] 15.7 µM | [5] 12.5 µM | [6] 17.2 µM | [7] 14.7 µM | [8] 22 µM | [9] 19.8 µM | [10] 16 µM | [11] 15.1 µM | [12] 13.4 µM | [13] 17.4 µM | [14] 15.5 µM | [15] 15.6 µM | [16] 17.4 µM | [17] 16.7 µM | [18] 14.9 µM | [19] 17.3 µM

CC1=NN(c2cccc(Cl)c2)C2(C1=Cc1cccs1)C(Cl)C(=O)N2c1nc2ccccc2s1 (stereo not given)
inactive: [1] 38.4 µM | [2] 25.7 µM | [3] 20.8 µM | [4] 21.8 µM | [5] 27.6 µM | [6] 19.5 µM | [7] 17.7 µM | [8] 18.2 µM | [9] 21.6 µM | [10] 21.1 µM | [11] 28.6 µM | [12] 28.6 µM | [13] 23.9 µM | [14] 17.9 µM | [16] 21.2 µM | [17] 17.4 µM | [18] 20.9 µM | [19] 25.2 µM
